Measurements reported in patent US20210238187A1, “AZIRIDINE CONTAINING EPOTHILONE ANALOGS, METHODS OF SYNTHESIS, METHODS OF TREATMENT, AND DRUG CONJUGATES” (WILLIAM MARSH RICE UNIVERSITY, priority 2017, published 2021).
Like-named read-outs stand apart in the source and are kept apart here.

How the values were obtained:
MES SA DX = experiment: Cytotoxicity assay (CellTiter-Glo), MES SA DX; format: cell-based, human; conditions: Homo sapiens, read-out: Cancer cell lines IC50, MES SA DX
OVCAR-8 = experiment: Cytotoxicity (GI50) assay, OVCAR-8; format: cell-based, human; conditions: OVCAR-8; human ovarian cancer cell line; read-out: Cancer cell lines GI50, OVCAR-8
MES SA = experiment: Cytotoxicity assay (CellTiter-Glo), MES SA; format: cell-based, human; conditions: MES-SA; human uterine sarcoma cell line; 72 hours, CellTiter-Glo; read-out: Cancer cell lines IC50, MES SA
Tubulin = Tubulin assembly induction; format: biochemical
SNB-75 = experiment: Cytotoxicity (GI50) assay, SNB-75; format: cell-based, human; conditions: SNB-75; human glioblastoma cell line; read-out: Cancer cell lines GI50, SNB-75
MCF-7 = experiment: Cytotoxicity (GI50) assay, MCF-7; format: cell-based, human; conditions: MCF7; human breast cancer cell line; concentration required to decrease cell growth by 50%; read-out: Cancer cell lines GI50, MCF-7
NCI/ADR-RES = experiment: Cytotoxicity (GI50) assay, NCI/ADR-RES; format: cell-based, human; conditions: read-out: Cancer cell lines GI50, NCI/ADR-RES
MDA-MB-435 = experiment: Cytotoxicity (GI50) assay, MDA-MB-435; format: cell-based, human; conditions: MDA-MB-435; human melanoma cell line; read-out: Cancer cell lines GI50, MDA-MB-435
[1] = Homo sapiens, NCI/ADR-RES, highly drug resistant human ovarian cancer cell line
[2] = MES SA cell line with marked multidrug resistance, 72 hours, CellTiter-Glo

| Structure (SMILES) | IC50 (MES SA DX; MES-SA, 72 h) | GI50 (OVCAR-8) | IC50 (MES SA) | EC50 (Tubulin) | GI50 (SNB-75) | GI50 (MCF-7) | GI50 (NCI/ADR-RES; Homo sapiens, NCI/ADR-RES) | GI50 (MDA-MB-435) | EC50 (Tubulin; […]) | GI50 (NCI/ADR-RES; [1]) | IC50 (MES SA DX; [2]) | GI50 (NCI/ADR-RES; highly drug resistant human ovarian cancer cell line) |
| --- | --- | --- | --- | --- | --- | --- | --- | --- | --- | --- | --- | --- |
| CC(=Cc1csc(C)n1)C1CC2OC2CCCC(C)C(O)C(C)C(=O)C(C)(C)C(O)CC(=O)O1 (stereo not drawn) [compound 1, epothilone A] | 5.12 nM | 20 nM | 1.46 nM | 22000 nM | 26 nM | 17 nM | 78 nM | 16 nM |  |  |  |  |
| CC(=Cc1csc(C)n1)C1CC=CCCCC(C)C(O)C(C)C(=O)C(C)(C)C(O)CC(=O)O1 (stereo not drawn) [compound 3, epothilone C, reference compound] |  | 110 nM | 31.5 nM | 18000 nM |  | 70 nM |  |  |  |  |  |  |
| C/C(=C\c1csc(C)n1)[C@@H]1C[C@@H]2O[C@]2(C)CCC[C@H](C)[C@H](O)[C@@H](C)C(=O)C(C)(C)[C@@H](O)CC(=O)N1 [compound 5, ixabepilone, reference compound] |  |  |  |  |  |  |  |  | 4500 nM | 1400 nM |  |  |
| C/C(=C\c1csc(C)n1)[C@@H]1C[C@@H]2N[C@]2(C)CCC[C@H](C)[C@H](O)[C@@H](C)C(=O)C(C)(C)[C@@H](O)CC(=O)O1 [compound 10, (1S,3S,7S,10R,11S,12S,16R)-7,11-Dihydroxy-8,8,10,12,16-pentamethyl-3-[(1E)-1-(2-methyl-1,3-thiazol-4-yl)prop-1-en-2-yl]-4-oxa-17-azabicyclo[14.1.0]heptadecane-5,9-dione] |  | 1.5 nM | 0.04 nM |  |  | 2 nM |  |  | 19000 nM | 35 nM | 0.51 nM |  |
| C/C(=C\c1csc(C)n1)[C@@H]1C[C@@H]2N(CCO)[C@]2(C)CCC[C@H](C)[C@H](O)[C@@H](C)C(=O)C(C)(C)[C@@H](O)CC(=O)O1 (stereo partly drawn) [compound 11, (1S,3S,7S,10R,11S,12S,16R)-7,11-Dihydroxy-17-(2-hydroxyethyl)-8,8,10,12,16-pentamethyl-3-[(1E)-1-(2-methyl-1,3-thiazol-4-yl)prop-1-en-2-yl]-4-oxa-17-azabicyclo[14.1.0]heptadecane-5,9-dione] |  | 4.5 nM | 0.94 nM |  |  | 3 nM |  |  | 18000 nM | 55 nM | 13.7 nM |  |
| CSc1nc(/C=C(\C)[C@@H]2C[C@@H]3N(CCO)[C@]3(C)CCC[C@H](C)[C@H](O)[C@@H](C)C(=O)C(C)(C)[C@@H](O)CC(=O)O2)cs1 (stereo partly drawn) [compound 12, (1S,3S,7S,10R,11S,12S,16R)-7,11-Dihydroxy-17-(2-hydroxyethyl)-8,8,10,12,16-pentamethyl-3-{(1E)-1-[2-(methylsulfanyl)-1,3-thiazol-4-yl]prop-1-en-2-yl}-4-oxa-17-azabicyclo[14.1.0]-heptadecane-5,9-dione] |  | 75 nM | 0.13 nM |  | 60 nM | 28 nM |  | 42 nM | 14000 nM | 55 nM | 0.66 nM |  |
| C/C(=C\c1csc(CN)n1)[C@@H]1C[C@@H]2N(CCO)[C@]2(C)CCC[C@H](C)[C@H](O)[C@@H](C)C(=O)C(C)(C)[C@@H](O)CC(=O)O1 (stereo partly drawn) [compound 13, (1S,3S,7S,10R,11S,12S,16R)-3-{(1E)-1-[2-(Aminomethyl)-1,3-thiazol-4-yl]prop-1-en-2-yl}-7,11-dihydroxy-17-(2-hydroxyethyl)-8,8,10,12,16-pentamethyl-4-oxa-17-azabicyclo[14.1.0]heptadecane-5,9-dione] |  | 93 nM | 0.078 nM |  | 130 nM | 65 nM |  | 20 nM | > 60000 nM | 2800 nM | 0.85 nM |  |
| CSc1nc(/C=C(\C)[C@@H]2C[C@@H]3N[C@]3(C)CCC[C@H](C)[C@H](O)[C@@H](C)C(=O)C(C)(C)[C@@H](O)CC(=O)O2)cs1 [compound 14, (1S,3S,7S,10R,11S,12S,16R)-7,11-Dihydroxy-8,8,10,12,16-pentamethyl-3-{(1E)-1-[2-(methyl-sulfanyl)-1,3-thiazol-4-yl]prop-1-en-2-yl}-4-oxa-17-azabicyclo[14.1.0]heptadecane-5,9-dione] |  | 16 nM | 0.28 nM |  | 11 nM | 4 nM |  | 4.5 nM | 5000 nM |  | 5.66 nM |  |
| C/C(=C\c1csc(N)n1)[C@@H]1C[C@@H]2N(CCO)[C@]2(C)CCC[C@H](C)[C@H](O)[C@@H](C)C(=O)C(C)(C)[C@@H](O)CC(=O)O1 (stereo partly drawn) [compound 15, (1S,3S,7S,10R,11S,12S,16R)-3-[(1E)-1-(2-Amino-1,3-thiazol-4-yl)prop-1-en-2-yl]-7,11-dihydroxy-17-(2-hydroxyethyl)-8,8,10,12,16-pentamethyl-4-oxa-17-azabicyclo[14.1.0]heptadecane-5,9-dione] |  | 290 nM | 36.4 nM |  | 280 nM | 330 nM |  | 220 nM | 13000 nM | 3800 nM | > 1000 nM |  |
| C/C(=C\c1csc(CCN)n1)[C@@H]1C[C@@H]2N(CCO)[C@]2(C)CCC[C@H](C)[C@H](O)[C@@H](C)C(=O)C(C)(C)[C@@H](O)CC(=O)O1 (stereo partly drawn) [compound 20, (1S,3S,7S,10R,11S,12S,16R)-3-{(1E)-1-[2-(2-Aminoethyl)-1,3-thiazol-4-yl]prop-1-en-2-yl}-7,11-dihydroxy-17-(2-hydroxyethyl)-8,8,10,12,16-pentamethyl-4-oxa-17-azabicyclo[14.1.0]heptadecane-5,9-dione] |  | 8.6 nM | 16.1 nM |  | 50 nM | 15 nM |  | 3.8 nM | 9100 nM | 45 nM | > 2500 nM |  |
| C/C(=C\c1ccccn1)[C@@H]1C[C@@H]2N(CCO)[C@]2(C)CCC[C@H](C)[C@H](O)[C@@H](C)C(=O)C(C)(C)[C@@H](O)CC(=O)O1 (stereo partly drawn) [compound 21, (1S,3S,7S,10R,11S,12S,16R)-7,11-Dihydroxy-17-(2-hydroxyethyl)-8,8,10,12,16-pentamethyl-3-[(1E)-1-(pyridin-2-yl)prop-1-en-2-yl]-4-oxa-17-azabicyclo[14.1.0]heptadecane-5,9-dione] |  | 170 nM | 0.685 nM |  | 98 nM | 250 nM |  | 30 nM | > 60000 nM | 4000 nM | 764 nM |  |
| CSc1cc(/C=C(\C)[C@@H]2C[C@@H]3N(CCO)[C@]3(C)CCC[C@H](C)[C@H](O)[C@@H](C)C(=O)C(C)(C)[C@@H](O)CC(=O)O2)nn1C (stereo partly drawn) [compound 23, (1S,3S,7S,10R,11S,12S,16R)-7,11-Dihydroxy-17-(2-hydroxyethyl)-8,8,10,12,16-pentamethyl-3-{(1E)-1-[1-methyl-5-(methylsulfanyl)-1H-pyrazol-3-yl]prop-1-en-2-yl}-4-oxa-17-azabicyclo[14.1.0]heptadecane-5,9-dione] |  | 10 nM | 0.22 nM |  | 10 nM | 78 nM |  | 12 nM | 4600 nM |  | 37.8 nM |  |
| C/C(=C\c1nc2ccccc2s1)[C@@H]1C[C@@H]2N(CCO)[C@]2(C)CCC[C@H](C)[C@H](O)[C@@H](C)C(=O)C(C)(C)[C@@H](O)CC(=O)O1 (stereo partly drawn) [compound 24, (1S,3S,7S,10R,11S,12S,16R)-3-[(1E)-1-(1,3-Benzothiazol-2-yl)prop-1-en-2-yl]-7,11-dihydroxy-17-(2-hydroxyethyl)-8,8,10,12,16-pentamethyl-4-oxa-17-azabicyclo[14.1.0]heptadecane-5,9-dione] |  | 23 nM | 0.18 nM |  | 12 nM | 11 nM |  | 3.5 nM | 7900 nM | 630 nM | 1.32 nM |  |
| CSc1nc(/C=C(\C)[C@@H]2C[C@@H]3N(CCN=[N+]=[N-])[C@]3(C)CCC[C@H](C)[C@H](O)[C@@H](C)C(=O)C(C)(C)[C@@H](O)CC(=O)O2)cs1 (stereo partly drawn) [compound 34, (1S,3S,7S,10R,11S,12S,16R)-17-(2-Azidoethyl)-7,11-dihydroxy-8,8,10,12,16-pentamethyl-3-{(1E)-1-[2-(methylsulfanyl)-1,3-thiazol-4-yl]prop-1-en-2-yl}-4-oxa-17-azabicyclo[14.1.0]heptadecane-5,9-dione] |  | 15 nM | 0.24 nM |  | 22 nM | 13 nM |  | 7.3 nM | 5400 nM | 3.2 to 8.8 nM | 0.52 nM | 3.2 nM |
| CSc1nc(/C=C(\C)[C@@H]2C[C@@H]3N(CCN)[C@]3(C)CCC[C@H](C)[C@H](O)[C@@H](C)C(=O)C(C)(C)[C@@H](O)CC(=O)O2)cs1 (stereo partly drawn) [compound 37, (1S,3S,7S,10R,11S,12S,16R)-17-(2-Aminoethyl)-7,11-dihydroxy-8,8,10,12,16-pentamethyl-3-{(1E)-1-[2-(methylsulfanyl)-1,3-thiazol-4-yl]prop-1-en-2-yl}-4-oxa-17-azabicyclo[14.1.0]heptadecane-5,9-dione] |  | 63 nM | 0.108 nM |  | 23 nM | 14 nM |  | 15 nM | 6100 nM | 70 nM | 12 nM |  |
